Data published in patent publication US6855512B2, “Methods for identifying inhibitors of cytochrome P450RAI” (Allergan, Inc., priority 2000, dated 2005).

Legend:
RARα [1] = target: T1, RARα (Homo sapiens, UniProt P10276); experiment: chimeric receptor transactivation assay, RARα; format: cell-based; details: EC50 line of EC50/(EFFICACY)/Kd, read-out: RAR α EC50
T1 sequence (P10276 183-417 limits assumed): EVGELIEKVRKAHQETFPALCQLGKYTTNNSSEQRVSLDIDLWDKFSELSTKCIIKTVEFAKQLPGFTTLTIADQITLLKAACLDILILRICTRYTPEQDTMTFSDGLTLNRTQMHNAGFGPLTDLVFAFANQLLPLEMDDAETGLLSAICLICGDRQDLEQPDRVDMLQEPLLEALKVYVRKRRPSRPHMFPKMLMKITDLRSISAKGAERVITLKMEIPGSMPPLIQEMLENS
Excerpt: (§1) Assays described below measure the ability of a compound to bind to, and/or activate various retinoid receptor subtypes. When in these assays a compound binds to a given receptor subtype and activates the transcription of a reporter gene through that subtype, then the compound is considered an agonist of that receptor subtype. […] In the below described assays the ability of the compounds to bind to RARα, RARβ, RARγ, RXRα, RXRβ and RXRγ receptors, and the ability or inability of the compounds to activate transcription of a reporter gene through these receptor subtypes can be tested.
(§2) The results obtained in this assay are expressed in EC50 numbers, as they are also in the chimeric receptor transactivation assay. The results of ligand binding assay are expressed in Kd numbers.

RARβ [2] = target: T2, RARβ (Homo sapiens, UniProt P10826); experiment: ligand binding assay, RARβ; details: Kd line of EC50/(EFFICACY)/Kd, K = thousand, read-out: RAR β Kd
T2 sequence (P10826 1-455): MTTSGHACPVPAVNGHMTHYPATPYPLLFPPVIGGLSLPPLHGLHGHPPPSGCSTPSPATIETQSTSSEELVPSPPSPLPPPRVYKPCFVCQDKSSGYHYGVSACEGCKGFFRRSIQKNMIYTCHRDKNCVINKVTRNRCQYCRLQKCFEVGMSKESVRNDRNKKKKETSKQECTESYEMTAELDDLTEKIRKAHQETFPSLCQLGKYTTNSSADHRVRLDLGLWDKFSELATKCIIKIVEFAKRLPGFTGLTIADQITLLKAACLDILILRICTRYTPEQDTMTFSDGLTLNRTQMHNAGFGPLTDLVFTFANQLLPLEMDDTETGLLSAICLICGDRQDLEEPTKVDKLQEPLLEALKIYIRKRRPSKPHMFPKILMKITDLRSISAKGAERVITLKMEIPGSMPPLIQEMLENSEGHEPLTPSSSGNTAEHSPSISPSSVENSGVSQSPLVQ
Excerpt: as §1, §2

RARβ [3] = target: T3, RARβ (Homo sapiens, UniProt P10826); experiment: chimeric receptor transactivation assay, RARβ; format: cell-based; details: EC50 line of EC50/(EFFICACY)/Kd, read-out: RAR β EC50
T3 sequence (P10826 183-417 limits assumed): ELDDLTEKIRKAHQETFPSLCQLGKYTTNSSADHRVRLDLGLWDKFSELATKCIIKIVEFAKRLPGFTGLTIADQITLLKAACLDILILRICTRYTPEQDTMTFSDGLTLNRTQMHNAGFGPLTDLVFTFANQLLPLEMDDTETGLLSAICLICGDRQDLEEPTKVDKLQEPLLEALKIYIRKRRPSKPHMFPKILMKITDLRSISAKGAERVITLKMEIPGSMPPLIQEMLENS
Excerpt: as §1, §2

RARγ [4] = target: T4, RARγ (Homo sapiens, UniProt P13631); experiment: ligand binding assay, RARγ; details: Kd line of EC50/(EFFICACY)/Kd, K = thousand, read-out: RAR γ Kd
T4 sequence (P13631 1-454): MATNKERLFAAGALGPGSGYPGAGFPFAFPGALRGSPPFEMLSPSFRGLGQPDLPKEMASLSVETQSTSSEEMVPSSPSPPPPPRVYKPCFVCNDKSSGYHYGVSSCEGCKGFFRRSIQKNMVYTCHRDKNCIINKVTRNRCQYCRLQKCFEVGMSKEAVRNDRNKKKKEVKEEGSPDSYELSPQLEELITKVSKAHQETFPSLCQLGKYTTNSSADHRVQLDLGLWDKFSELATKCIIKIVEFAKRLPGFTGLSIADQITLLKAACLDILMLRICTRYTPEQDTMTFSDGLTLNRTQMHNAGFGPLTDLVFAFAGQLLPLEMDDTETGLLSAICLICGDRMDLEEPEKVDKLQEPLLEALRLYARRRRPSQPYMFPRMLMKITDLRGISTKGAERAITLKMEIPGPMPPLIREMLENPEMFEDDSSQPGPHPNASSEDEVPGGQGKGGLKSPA
Excerpt: as §1, §2

RARα [5] = target: T5, RARα (Homo sapiens, UniProt P10276); experiment: ligand binding assay, RARα; details: Kd line of EC50/(EFFICACY)/Kd, K = thousand, read-out: RAR α Kd
T5 sequence (P10276 1-462): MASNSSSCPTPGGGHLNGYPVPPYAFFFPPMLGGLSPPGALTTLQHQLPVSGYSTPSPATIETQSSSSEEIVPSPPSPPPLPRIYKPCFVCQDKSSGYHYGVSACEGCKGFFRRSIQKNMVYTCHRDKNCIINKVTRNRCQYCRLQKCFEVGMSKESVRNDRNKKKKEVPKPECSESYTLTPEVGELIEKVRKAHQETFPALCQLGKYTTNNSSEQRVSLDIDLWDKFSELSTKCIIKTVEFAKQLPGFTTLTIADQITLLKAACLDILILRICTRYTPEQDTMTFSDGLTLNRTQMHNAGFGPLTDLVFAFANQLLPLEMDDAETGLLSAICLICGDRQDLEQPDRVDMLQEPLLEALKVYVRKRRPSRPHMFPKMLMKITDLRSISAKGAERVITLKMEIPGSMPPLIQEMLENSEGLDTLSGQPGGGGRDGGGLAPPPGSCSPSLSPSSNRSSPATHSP
Excerpt: as §1, §2

RARγ [6] = target: T6, RARγ (Homo sapiens, UniProt P13631); experiment: chimeric receptor transactivation assay, RARγ; format: cell-based; details: EC50 line of EC50/(EFFICACY)/Kd, read-out: RAR γ EC50
T6 sequence (P13631 185-454 limits assumed): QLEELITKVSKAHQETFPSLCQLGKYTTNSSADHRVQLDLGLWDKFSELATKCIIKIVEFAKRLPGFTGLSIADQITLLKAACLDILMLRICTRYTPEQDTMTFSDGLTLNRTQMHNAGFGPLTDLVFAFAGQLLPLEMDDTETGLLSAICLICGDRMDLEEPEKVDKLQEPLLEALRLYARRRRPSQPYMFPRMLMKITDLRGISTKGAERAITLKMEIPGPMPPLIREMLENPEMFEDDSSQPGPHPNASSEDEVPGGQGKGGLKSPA
Excerpt: as §1, §2

SMILES: CC1(C)CCSc2ccc(C#Cc3ccc(CCC(=O)O)cc3)cc21 [Compound 210]
- EC50 (RARα [1]): 0.089 µM
- Kd (RARβ [2]): 2.89 µM
- EC50 (RARβ [3]): 0.018 µM
- Kd (RARγ [4]): 10 µM
- Kd (RARα [5]): 10 µM
- EC50 (RARγ [6]): 0.015 µM
